Earlier results as cited in patent publication US20130018223A1, “METHOD FOR TIMING A COLONOSCOPY” (priority 2011, published 2013).

Structure (SMILES): [O]=[Mg] [Magnesium oxide]
- solubility in alcohol: not soluble
